The experiment addresses Tyrosine-protein phosphatase non-receptor type 7 (Homo sapiens) (UniProt P35236). Kind of experiment: inhibition of recombinant HePTP activity – biochemical, fluorescence, secondary assay, dose response (AID 1077). The conditions noted are these: fluorogenic substrate.

Tyrosine-protein phosphatase non-receptor type 7 (Homo sapiens), sequence (P35236 whole entry, looked up): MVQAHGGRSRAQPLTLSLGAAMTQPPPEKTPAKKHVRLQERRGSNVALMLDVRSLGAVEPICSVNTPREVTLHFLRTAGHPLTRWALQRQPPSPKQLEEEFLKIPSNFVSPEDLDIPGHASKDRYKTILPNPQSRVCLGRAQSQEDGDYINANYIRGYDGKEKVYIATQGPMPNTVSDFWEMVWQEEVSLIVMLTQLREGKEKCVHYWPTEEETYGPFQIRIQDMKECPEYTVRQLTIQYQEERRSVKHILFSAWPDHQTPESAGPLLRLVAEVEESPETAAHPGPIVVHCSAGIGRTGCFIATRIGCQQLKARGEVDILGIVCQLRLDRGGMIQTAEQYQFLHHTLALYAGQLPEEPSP

With `CCOc1ccc2nc(NC(=O)CSC3=Nc4sc(C)c(C)c4C(=O)C3)sc2c1`, the IC50 is 15 µM.

A word on the IC50: it is the concentration at which inhibition is half-maximal.

The record behind these values is PubChem BioAssay AID1077 (Sanford-Burnham Center for Chemical Genomics, 2009).
